Measurements reported in paper PMC3948749, “Engineering of Pyranose Dehydrogenase for Increased Oxygen Reactivity” (PLoS ONE, 2014).

How the values were obtained:
[1] = molecular target: T1, AmPDH (Agaricus meleagris pyranose dehydrogenase, pdh1) (Macropsalliota meleagris, UniProt Q3L245, H128Y); assay: steady-state kinetics; format: biochemical; settings: apparent; electron acceptor; 25 mM D-glucose as donor; pH 4; 30 °C; read-out: H103Y / K m /
T1 construct: monomeric glycoprotein about 90 kDa, 64 kDa deglycosylated
Source text: steady-state kinetics on AmPDH (Agaricus meleagris pyranose dehydrogenase, pdh1)

[2] = molecular target: T2, AmPDH (Agaricus meleagris pyranose dehydrogenase, pdh1) (Macropsalliota meleagris, UniProt Q3L245); assay: UV-vis spectra before and after TCA/acetone precipitation; format: binding; settings: covalent (to H103); pH 7.5 spectra
T2 construct: monomeric glycoprotein about 90 kDa, 64 kDa deglycosylated

[3] = molecular target: T1, AmPDH (Agaricus meleagris pyranose dehydrogenase, pdh1); assay: as above; format: binding; settings: non-covalent, tightly bound; pH 7.5 spectra
[4] = molecular target: T1, AmPDH (Agaricus meleagris pyranose dehydrogenase, pdh1); assay: steady-state kinetics, ferrocenium assay; format: biochemical; settings: apparent; electron acceptor; 25 mM D-glucose as donor; pH 8.5; 30 °C; read-out: H103Y / K m /
Source text: steady-state kinetics, ferrocenium assay on AmPDH (Agaricus meleagris pyranose dehydrogenase, pdh1)

T1 sequence (Q3L245 26-602 H128Y): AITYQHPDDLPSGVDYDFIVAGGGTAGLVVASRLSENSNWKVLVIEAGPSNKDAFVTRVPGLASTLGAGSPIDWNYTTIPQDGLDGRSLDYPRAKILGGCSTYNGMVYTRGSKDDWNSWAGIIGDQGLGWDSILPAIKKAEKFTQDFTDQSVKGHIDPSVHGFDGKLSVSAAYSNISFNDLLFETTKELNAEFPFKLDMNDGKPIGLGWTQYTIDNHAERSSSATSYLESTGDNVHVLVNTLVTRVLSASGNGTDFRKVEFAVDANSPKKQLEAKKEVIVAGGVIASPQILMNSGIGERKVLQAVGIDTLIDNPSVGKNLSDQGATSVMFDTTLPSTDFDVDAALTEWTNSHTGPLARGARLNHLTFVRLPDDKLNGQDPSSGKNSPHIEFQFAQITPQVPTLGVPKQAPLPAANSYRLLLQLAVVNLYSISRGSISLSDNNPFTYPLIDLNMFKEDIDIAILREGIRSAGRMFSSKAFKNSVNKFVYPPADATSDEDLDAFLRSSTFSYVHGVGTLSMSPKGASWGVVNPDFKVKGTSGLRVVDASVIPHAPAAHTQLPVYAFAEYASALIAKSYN
T2 sequence (Q3L245 26-602): as the sequence (Q3L245 26-602 H128Y) above, with Y103H counted along it

**Q.** With `O=C1C=CC(=O)C=C1` [1,4-BQ, 1,4-benzoquinone] as the compound, how does the Km [1] read?
**A.** 3640 ± 470 µM

**Q.** What does the source list for `Cc1cc2nc3c(=O)[nH]c(=O)nc-3n(C[C@H](O)[C@H](O)[C@H](O)COP(=O)(O)OP(=O)(O)OC[C@H]3O[C@@H](n4cnc5c(N)ncnc54)[C@H](O)[C@@H]3O)c2cc1C` [FAD]?
**A.** UV-vis spectra before and after TCA/acetone precipitation [2]: the wild-type protein did not release the covalently bound FAD; UV-vis spectra before and after TCA/acetone precipitation [3]: the variant H103Y carries a tightly but non-covalently bound FAD cofactor

**Q.** Which Km [4] does the source give for `F[P-](F)(F)(F)(F)F.[Fe+3].c1cc[cH-]c1.c1cc[cH-]c1` [Fc+PF6, ferrocenium hexafluorophosphate] here?
**A.** 100 ± 10 µM
